Where a name gives a salt, the structure may show the parent alone.
How the values were obtained:
AGS = experiment: CellTiter-Glo Reagent cancer cell line proliferation assay, AGS; assay type: cell-based, human; settings: Homo sapiens, 24 h, KRAS(G12D) heterozygous
Method in brief: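 Cells were seeded at 4,000 per well, grown 24 hr at 37° C./5% CO2, then exposed 24 hr to 3-fold dilutions from 20 μM to 1.02 nM (0.5% DMSO final). Viability was read with CellTiter-Glo luminescence, and IC50 values were calculated.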

GP2D = experiment: CellTiter-Glo Reagent cancer cell line proliferation assay, GP2D; assay type: cell-based; settings: Homo sapiens, KRAS(G12D) heterozygous, 24 hr
Description: (§1) The following cancer cell lines were employed: • AsPC-1 human pancreatic adenocarcinoma, homozygous KRAS(G12D), (ATCC, #CRL-1682); A-427 human lung carcinoma, heterozygous KRAS(G12D), (ATCC, #HTB-53); AGS human gastric adenocarcinoma, heterozygous KRAS(G12D), (ATCC, #CRL-1739); GP2D human colon adenocarcinoma, heterozygous KRAS(G12D), (Sigma Aldrich, 95090714); SW1990 human pancreatic adenocarcinoma, homozygous KRAS(G12D), (ATCC, #CRL2172); LU65A human lung giant cell carcinoma, heterozygous KRAS(G12C), (JCRB Cell Bank, #JCRB0054); NCIH727 human lung carcinoid, heterozygous KRAS(G12V), (ATCC, #CRL-5815); MKN1 human gastric adenosquamous carcinoma KRAS (wt), (JCRB Cell Bank, #JCRB0252). Cell lines were cultured according to ATCC, JCRB and Sigma Aldrich recommendations.
(§2) Cells were plated in 96-well tissue culture plates at 4,000 cells/well and incubated at 37° C./5% CO2 for 24 hr in 100 μl of media. 3-fold serial dilutions of each test compound were prepared ranging from 20 μM to 1.02 nM. Cells were then treated with test compounds at various concentrations with a final concentration of 0.5% DMSO/well, and then incubated at 37° C./5% CO2 for 24 hr. 100 μl of CellTiter-Glo® Reagent (Promega Corporation, Madison, WI) was added to each well and processed according manufacturer's protocol. Results were analyzed and IC50-values were calculated in GraphPad 7 software.

KRAS(G12D) [1] = biological target: T1, KRAS(G12D) (Homo sapiens, UniProt P01116, G12D); experiment: KRAS Western Blot Protein Degradation Assay, GP2D; assay type: cell-based; set-up: Cell lines SW1990 and GP2D that express KRAS(G12D); host or cells: GP2D; settings: for Dmax: GP2d, read-out: WB data GP2D DMax; for DC50: read-out: WB data GP2D DC50, GP2D, KRAS degradation, 24 hr
Description: as §1
(§3) Cell lines SW1990 and GP2D that express KRAS(G12D), LU65A that expresses KRAS(G12C), and NCIH727 that expresses KRAS(G12V) were seeded in 6- or 12-well tissue culture plates, and after 1 hr, test compounds were added at various concentrations and incubated at 37° C./5% CO2 for 24 hr. Cells were then washed with cold PBS, aspirated and cold RIPA buffer containing a protease/phosphatase inhibitor cocktail was added to lyse cells. After centrifugation, the total protein concentrations of cell lysates were determined using the BCA protein assay. Samples were normalized for equivalent protein concentrations, 5× SDS-PAGE loading buffer added and denatured at 100° C. for 10 min. 20 μl of each sample/well was loaded on a SDS-PAGE gel and electrophoresed for 20 min at 80 V, then 120 V for 1.5 hr. Gels were then electroblotted to nitrocellulose membranes using a wet-transfer method at 250 mA for 2.5 hr. Membranes were incubated with blocking buffer for 1 hr and washed 3 times with TBST for 5 min. Membranes were then incubated with anti-KRAS (Sigma-Aldrich, #SAB1404011) and anti-β-Actin monoclonal antibodies (Cell Signaling Technology, #3700) diluted in blocking buffer at 4° C. overnight per the manufacturer's recommendations. After washing 3 times, blots were incubated with appropriately labeled secondary antibodies for 1 hr at room temperature and washed again. Fluorescence imaging and quantitation was performed using a LI-COR Odyssey. Results was analyzed using GraphPad Prism 7 software. Compound concentrations that induced KRAS degradation (DC50 and DCmax) were calculated using GraphPad Prism 7 software.
Target sequence in this assay (P01116 1-185 isoform P01116-2 G12D limits assumed): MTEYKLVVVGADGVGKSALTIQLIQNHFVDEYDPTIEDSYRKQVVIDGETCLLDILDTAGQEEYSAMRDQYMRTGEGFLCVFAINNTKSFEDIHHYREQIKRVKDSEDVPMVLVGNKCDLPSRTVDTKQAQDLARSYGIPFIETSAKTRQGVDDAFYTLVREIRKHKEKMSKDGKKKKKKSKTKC

SW1990 = experiment: CellTiter-Glo Reagent cancer cell line proliferation assay, SW1990; assay type: cell-based; settings: Homo sapiens; SW1990, KRAS(G12D) homozygous, 24 hr
Description: as §1, §2

KRAS(G12D) [2] = biological target: T1, KRAS(G12D); experiment: cell-based; assay type: cell-based; set-up: Cell lines SW1990 and GP2D that express KRAS(G12D); host or cells: SW1990; settings: for Dmax: SW1990, read-out: WB data SW1990 DMax; for DC50: read-out: WB data SW1990 DC50, SW1990, KRAS degradation, 24 hr
Procedure: Cell lines were cultured according to ATCC, JCRB and Sigma Aldrich recommendations.
as §3, with “Cells” for “Cell lines SW1990 and GP2D that express KRAS(G12D), LU65A that expresses KRAS(G12C), and NCIH727 that expresses KRAS(G12V) were seeded in 6- or 12-well tissue culture plates, and after 1 hr, test compounds were added at various concentrations and incubated at 37° C./5% CO2 for 24 hr. Cells”
Target sequence in this assay (P01116 1-188 isoform P01116-2 G12D): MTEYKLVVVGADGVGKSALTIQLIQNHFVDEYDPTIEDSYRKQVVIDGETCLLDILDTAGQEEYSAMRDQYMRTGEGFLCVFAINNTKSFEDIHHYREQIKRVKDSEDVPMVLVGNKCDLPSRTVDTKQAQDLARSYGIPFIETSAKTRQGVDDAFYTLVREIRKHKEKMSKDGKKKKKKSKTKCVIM

SMILES: O=CO.[2H]C([2H])([2H])Oc1nc(-c2cc(O)cc3ccc(F)c(C#C)c23)c(F)c2nc(OCC3(CN4CCN(CC5CCN(c6ccc7c(c6)CN(C6CCC(=O)NC6=O)C7=O)CC5)CC4)CC3)nc(N3CC4CCC(C3)N4CCC#N)c12 (stereo not drawn) [Compound 95]
- IC50 (AGS): 100 to 1000 nM
- IC50 (GP2D): < 100 nM
- Dmax (KRAS(G12D) [1]): < 10%
- DC50 (KRAS(G12D) [1]): > 1000 nM

SMILES: O=CO.[2H]C([2H])([2H])Oc1nc(-c2cc(O)cc3ccc(F)c(C#C)c23)c(F)c2nc(OCC3(CN4CCN(CC5CCN(c6ccc7c(c6)CN(C6CCC(=O)NC6=O)C7=O)CC5)CC4)CC3)nc(N3CC4CCC(C3)N4CC#N)c12 (stereo not drawn) [Compound 94]
- IC50 (AGS): < 100 nM
- IC50 (GP2D): < 100 nM
- Dmax (KRAS(G12D) [1]): > 50%
- DC50 (KRAS(G12D) [1]): < 100 nM

SMILES: [2H]C([2H])([2H])Oc1nc(-c2cc(O)cc3ccc(F)c(C#C)c23)c(F)c2nc(OCC3(CN4CCN(CC5CCN(c6ccc7c(c6)CN(C6CCC(=O)NC6=O)C7=O)CC5)CC4)CC3)nc(N3CC4CCC(C3)N4CC(C)C)c12 (stereo not drawn) [Compound 96]
- IC50 (AGS): > 1000 nM
- IC50 (GP2D): 100 to 1000 nM
- Dmax (KRAS(G12D) [1]): 10 to 50%
- DC50 (KRAS(G12D) [1]): > 1000 nM

SMILES: C#Cc1c(F)ccc2cc(O)cc(-c3ncc4c(N5CC6CCC(C5)N6CC#N)nc(OCC5(CN6CCN(CC7CCN(c8ccc9c(c8)CN(C8CCC(=O)NC8=O)C9=O)CC7)CC6)CC5)nc4c3F)c12 (stereo not drawn) [Compound 101]
- IC50 (AGS): < 100 nM
- IC50 (GP2D): < 100 nM
- Dmax (KRAS(G12D) [1]): > 50%
- DC50 (KRAS(G12D) [1]): < 100 nM

SMILES: C#Cc1c(F)ccc2cc(O)cc(-c3ncc4c(N5CC6CCC(C5)N6)nc(OCC5(CN6CCN(CC7CCN(c8ccc9c(=O)n(C%10CCC(=O)NC%10=O)ncc9c8)CC7)CC6)CC5)nc4c3F)c12 (stereo not drawn) [Compound 88]
- IC50 (AGS): < 100 nM
- IC50 (GP2D): < 100 nM
- IC50 (SW1990): < 100 nM
- Dmax (KRAS(G12D) [2]): 10 to 50%
- DC50 (KRAS(G12D) [2]): > 1000 nM

SMILES: C#Cc1c(F)ccc2cc(O)cc(-c3ncc4c(N5C[C@H]6CC[C@@H](C5)N6)nc(OCC5(CN6CC(C#Cc7ccc8c(c7)CN(C7CCC(=O)NC7=O)C8=O)C6)CC5)nc4c3F)c12 (stereo partly drawn) [Compound 90, 3-(5-((1-((1-(((4-((1R,5S)-3,8-diazabicyclo[3.2.1]octan-3-yl)-7-(8-ethynyl-7-fluoro-3-hydroxynaphthalen-1-yl)-8-fluoropyrido[4,3-d]pyrimidin-2-yl)oxy)methyl)cyclopropyl)methyl)azetidin-3-yl)ethynyl)-1-oxoisoindolin-2-yl) piperidine-2,6-dione formate]
- IC50 (AGS): < 100 nM
- IC50 (GP2D): < 100 nM
- IC50 (SW1990): < 100 nM
- Dmax (KRAS(G12D) [2]): 10 to 50%
- DC50 (KRAS(G12D) [2]): > 1000 nM

SMILES: C#Cc1c(F)ccc2cc(O)cc(-c3ncc4c(N5CC6CCC(C5)N6)nc(OCC5(CN6CCN(CC#Cc7ccc8c(c7)CN(C7CCC(=O)NC7=O)C8=O)CC6)CC5)nc4c3F)c12 (stereo not drawn) [Compound 89]
- IC50 (AGS): < 100 nM
- IC50 (GP2D): < 100 nM
- IC50 (SW1990): 100 to 1000 nM
- Dmax (KRAS(G12D) [2]): 10 to 50%
- DC50 (KRAS(G12D) [2]): > 1000 nM

SMILES: C#Cc1c(F)ccc2cc(O)cc(-c3nc(OC)c4c(N5CC6CCC(C5)N6CC#N)nc(OCC5(CN6CCN(CC7CCN(c8ccc9c(c8)CN(C8CCC(=O)NC8=O)C9=O)CC7)CC6)CC5)nc4c3F)c12 (stereo not drawn) [Compound 100, 2-(3-(2-((1-((4-((1-(2-(2,6-dioxopiperidin-3-yl)-1-oxoisoindolin-5-yl)piperidin-4-yl)methyl)piperazin-1-yl)methyl)cyclopropyl)methoxy)-7-(8-ethynyl-7-fluoro-3-hydroxynaphthalen-1-yl)-8-fluoro-5-methoxypyrido[4,3-d]pyrimidin-4-yl)-3,8-diazabicyclo[3.2.1]octan-8-yl) acetonitrile formate]
- IC50 (AGS): < 100 nM
- IC50 (GP2D): < 100 nM
- Dmax (KRAS(G12D) [1]): > 50%
- DC50 (KRAS(G12D) [1]): < 100 nM

SMILES: O=CO.[2H]C([2H])([2H])Oc1nc(-c2cc(O)cc3ccc(F)c(C#C)c23)c(F)c2nc(OCC3(CN4CCN(CC5CCN(c6ccc7c(c6)CN(C6CCC(=O)NC6=O)C7=O)CC5)CC4)CC3)nc(N3CC4CCC(C3)N4CCO)c12 (stereo not drawn) [Compound 98]
- IC50 (AGS): < 100 nM
- IC50 (GP2D): < 100 nM
- Dmax (KRAS(G12D) [1]): > 50%
- DC50 (KRAS(G12D) [1]): < 100 nM

SMILES: C#Cc1c(F)ccc2cc(O)cc(-c3ncc4c(N5CC6CCC(C5)N6C(=O)C(F)(F)F)nc(OCC5(CN6CCN(CC7CCN(c8ccc9c(c8)CN(C8CCC(=O)NC8=O)C9=O)CC7)CC6)CC5)nc4c3F)c12 (stereo not drawn) [Compound 78]
- IC50 (SW1990): < 100 nM
- Dmax (KRAS(G12D) [2]): 10 to 50%
- DC50 (KRAS(G12D) [2]): 100 to 1000 nM

Source: patent US20260325654A1, “METHODS AND COMPOSITIONS FOR TARGETED PROTEIN DEGRADATION” (Ranok Therapeutics (Hangzhou) Co. Ltd., priority 2023, published 2026)
